According to US9415039B2, “Disubstituted 3,4-diamino-3-cyclobutene-1,2-dione compounds for use in the treatment of chemokine-mediated diseases” (GALDERMA RESEARCH & DEVELOPMENT, priority 2011, dated 2016):

Tests used:
CXCR2 receptor = target: T1, CXCR2 receptor (Homo sapiens, UniProt P25025); assay: β-arrestin 2 recruitment test after CXCL8 activation, PathHunter HEK293-CXCR2 cells; assay type: cell-based; details: stimulation with CXCL8 (10 nM), read-out: CXCR2 (nM), IC50 = half inhibition concentration
T1 construct: β-galactosidase enzyme-complementation fragment (PathHunter system); host or cells: HEK293
T1 sequence (P25025 1-360): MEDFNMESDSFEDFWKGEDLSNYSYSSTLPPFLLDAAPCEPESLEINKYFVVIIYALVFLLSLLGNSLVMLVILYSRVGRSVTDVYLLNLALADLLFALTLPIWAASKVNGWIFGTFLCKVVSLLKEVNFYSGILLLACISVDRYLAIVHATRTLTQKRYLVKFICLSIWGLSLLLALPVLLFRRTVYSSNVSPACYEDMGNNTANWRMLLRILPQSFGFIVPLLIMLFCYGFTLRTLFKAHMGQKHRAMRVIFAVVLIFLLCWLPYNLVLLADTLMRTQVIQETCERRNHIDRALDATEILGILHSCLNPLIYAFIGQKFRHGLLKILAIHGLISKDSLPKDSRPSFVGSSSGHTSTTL
Protocol: (§1) The in vitro affinity of the compounds of the present invention for the CXCR1 and CXCR2 receptors was determined on a functional test of the β-arrestin recruitment after receptor activation type.
(§2) In order to evaluate the direct interaction of the CXCR2 or CXCR1 receptor with β-arrestin 2, a β-arrestin 2 recruitment test for CXCR2 or CXCR1 based on β-galactosidase enzyme complementation (Olson K R, Eglen R M. Beta galactosidase complementation: a cell-based luminescent assay platform for drug discovery. Assay Drug Dev Technol. 2007 February; 5(1); 137-44), as established by DiscoveRx Corporation was used. The stimulation of these two cell lines with CXCL8 (10 nM) induces β-arrestin 2 recruitment, as indicated by a significant increase in the induction factor. […]
(§3) “PathHunter HEK293-CXCR2” or “U2OS hCXCR1 β-arrestin” cells (DiscoveRx Corporation) were seeded overnight at 10 000 cells/well (384-well format) in 20 μl of Opti MEM I medium. […] After incubation for 60 min at ambient temperature, the […] during the β-arrestin-CXCR2 interaction was measured for 0.3 s in an Envision 2102 Multilabel Reader (PerkinElmer Life and Analytical Sciences). The data were analyzed by means of a non-linear curve procedure using the XLFit4 exploitation software (IDBS) and the IC50 values were determined.

CXCR1 receptor = target: T2, CXCR1 receptor (Homo sapiens, UniProt P25024); assay: β-arrestin 2 recruitment test after CXCL8 activation, U2OS hCXCR1 β-arrestin cells; assay type: cell-based; details: stimulation with CXCL8 (10 nM), read-out: CXCR1 (nM), IC50 = half inhibition concentration
T2 construct: β-galactosidase enzyme-complementation fragment (PathHunter system); host or cells: U2OS
T2 sequence (P25024 1-350): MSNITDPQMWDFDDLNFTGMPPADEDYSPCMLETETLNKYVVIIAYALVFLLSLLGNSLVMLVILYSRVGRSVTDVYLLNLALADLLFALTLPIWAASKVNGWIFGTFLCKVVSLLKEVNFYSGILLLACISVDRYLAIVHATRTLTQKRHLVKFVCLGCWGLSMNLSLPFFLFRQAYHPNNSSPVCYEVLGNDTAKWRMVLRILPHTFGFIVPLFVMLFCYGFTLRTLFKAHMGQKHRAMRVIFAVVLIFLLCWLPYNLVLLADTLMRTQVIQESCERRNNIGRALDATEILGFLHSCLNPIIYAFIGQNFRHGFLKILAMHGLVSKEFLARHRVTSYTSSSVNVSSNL
Protocol: as §1, §2, §3

IC50 (CXCR2 receptor) | IC50 (CXCR1 receptor) | melting point | SMILES
212 nM | 5440 nM | 137 to 140 °C | Cc1ccc(C(Nc2c(Nc3cccc(C(=O)N(C)C)c3O)c(=O)c2=O)C2CCOCC2)o1 (stereo not drawn) [Example 1, 2-hydroxy-N,N-dimethyl-3-(2-{[(5-methylfuran-2-yl)-(tetrahydropyran-4-yl)methyl]amino}-3,4-dioxocyclobut-1-enylamino)benzamide]
111 nM | 3390 nM | 173 to 175 °C | Cc1ccc(C(Nc2c(Nc3cccc(C(=O)N(C)C)c3O)c(=O)c2=O)C2CCSCC2)o1 (stereo not drawn) [Example 2, 2-hydroxy-N,N-dimethyl-3-(2-{[(5-methylfuran-2-yl)-(tetrahydrothiopyran-4-yl)methyl]amino}-3,4-dioxocyclobut-1-enylamino)benzamide]
